Assay results reported in patent US8952024B2, “Herbicidal pyrimidone derivatives” (E I du Pont de Nemours and Company, priority 2009, dated 2015).

What was measured:
Type in all cases: in vivo
[1] = system: giant foxtail (Setaria faberii); experiment: Test B pre-/postemergence plant response; conditions: for Foxtail, Giant plant response rating (0 to 100 scale): 62 g ai/ha, 0 is no effect, 13 to 15 days
Source text: (§1) Seeds of plant species selected from blackgrass (Alopecurus myosuroides), downy bromegrass (Bromus tectorum), green foxtail (Setaria viridis), Italian ryegrass (Lolium multiflorum), wheat (Triticum aestivum), wild oat (Avena fatua), deadnettle (henbit deadnettle, Lamium amplexicaule), galium (catchweed bedstraw, Galium aparine), bermudagrass (Cynodon dactylon), Surinam grass (Brachiaria decumbens), cocklebur (Xanthium strumarium), corn (Zea mays), large crabgrass (Digitaria sanguinalis), woolly cupgrass (Eriochloa villosa), giant foxtail (Setaria faberii), goosegrass (Eleusine indica), johnsongrass (Sorghum halepense), kochia (Kochia scoparia), lambsquarters (Chenopodium album), morningglory (Ipomoea coccinea), nightshade (eastern black nightshade, Solanum ptycanthum), yellow nutsedge (Cyperus esculentus), pigweed (Amaranthus retroflexus), ragweed (common ragweed, Ambrosia elatior), Russian thistle (Salsola kali), soybean (Glycine max), sunflower (common oilseed sunflower, Helianthus annuus) and velvetleaf (Abutilon theophrasti) were planted into a blend of loam soil and sand and treated preemergence with test compounds formulated in a non-phytotoxic solvent mixture which included a surfactant.
(§2) At the same time, plants selected from these crop and weed species and also winter barley (Hordeum vulgare), canarygrass (Phalaris minor), chickweed (Stellaria media) and windgrass (Apera spica-venti) were planted in pots containing Redi-Earth® planting medium (Scotts Company, 14111 Scottslawn Road, Marysville, Ohio 43041) comprising spaghnum peat moss, vermiculite, wetting agent and starter nutrients and treated with postemergence applications of some of the test chemicals formulated in the same manner. Plants ranged in height from 2 to 18 cm (1- to 4-leaf stage) for postemergence treatments.
(§3) Treated plants and controls were maintained in a greenhouse for 13 to 15 days, after which time all treated plants were visually evaluated and compared to controls. Plant response ratings, summarized in Table B, are based on a scale of 0 to 100 where 0 is no effect and 100 is complete control. A dash (-) response means no test result.

[2] = system: cocklebur (Xanthium strumarium); experiment: Test B pre-/postemergence plant response; conditions: for Cocklebur plant response rating (0 to 100 scale): 62 g ai/ha, 0 is no effect, 13 to 15 days
Source text: as §1, §2, §3

[3] = system: Italian ryegrass (Lolium multiflorum); experiment: Test B pre-/postemergence plant response; conditions: for Ryegrass, Italian plant response rating (0 to 100 scale): 62 g ai/ha, 0 is no effect, 13 to 15 days
Source text: as §1, §2, §3

[4] = system: downy bromegrass (Bromus tectorum); experiment: Test B pre-/postemergence plant response; conditions: for Bromegrass, Downy plant response rating (0 to 100 scale): 62 g ai/ha, 0 is no effect, 13 to 15 days
Source text: as §1, §2, §3

[5] = system: blackgrass (Alopecurus myosuroides); experiment: Test B pre-/postemergence plant response; conditions: for Blackgrass plant response rating (0 to 100 scale): 62 g ai/ha, 0 is no effect, 13 to 15 days
Source text: as §1, §2, §3

corn (Zea mays) = experiment: Test B pre-/postemergence plant response; conditions: for Corn plant response rating (0 to 100 scale): 62 g ai/ha, 0 is no effect, 13 to 15 days
Source text: as §1, §2, §3

[6] = system: pigweed (Amaranthus retroflexus); experiment: Test B pre-/postemergence plant response; conditions: for Pigweed plant response rating (0 to 100 scale): 62 g ai/ha, 0 is no effect, 13 to 15 days
Source text: as §1, §2, §3

[7] = system: morningglory (Ipomoea coccinea); experiment: Test B pre-/postemergence plant response; conditions: for Morningglory plant response rating (0 to 100 scale): 62 g ai/ha, 0 is no effect, 13 to 15 days
Source text: as §1, §2, §3

wild oat (Avena fatua) = experiment: Test B pre-/postemergence plant response; conditions: for Oat, Wild plant response rating (0 to 100 scale): 62 g ai/ha, 0 is no effect, 13 to 15 days
Source text: as §1, §2, §3

[8] = system: Surinam grass (Brachiaria decumbens); experiment: Test B pre-/postemergence plant response; conditions: for Surinam Grass plant response rating (0 to 100 scale): 62 g ai/ha, 0 is no effect, 13 to 15 days
Source text: as §1, §2, §3

[9] = system: windgrass (Apera spica-venti); experiment: Test B postemergence plant response; conditions: for Windgrass plant response rating (0 to 100 scale): 62 g ai/ha, 0 is no effect, 13 to 15 days
How it was run: (§4)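 Plants grown in peat/vermiculite medium were sprayed postemergence at 2–18 cm height (1- to 4-leaf stage). After 13–15 days in the greenhouse, response was rated visually against untreated controls on a 0–100 scale (0 no effect, 100 complete control).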

[10] = system: chickweed (Stellaria media); experiment: Test B postemergence plant response; conditions: for Chickweed plant response rating (0 to 100 scale): 62 g ai/ha, 0 is no effect, 13 to 15 days
How it was run: as §4

[11] = system: canarygrass (Phalaris minor); experiment: Test B postemergence plant response; conditions: for Canarygrass plant response rating (0 to 100 scale): 62 g ai/ha, 0 is no effect, 13 to 15 days
How it was run: as §4

[12] = 31 g ai/ha, postemergence, scale 0 to 100, 0 is no effect, 100 is complete control
[13] = postemergence, 100 is complete control
[14] = Postemergence, 250 g ai/ha, scale 0 to 100 (0 no effect, 100 complete control)
[15] = Postemergence, 125 g ai/ha, visual rating after 13 to 15 days, scale 0 (no effect) to 100 (complete control)

O=C1CCCC(OC(=O)C2CC2)=C1C(=O)c1cnc(-c2ccccc2)n(-c2ccccc2)c1=O [Compound 88]
Plant response rating, Foxtail, Giant [1, 12]: 95 | Foxtail, Giant plant response rating (0 to 100 scale) [1, 13]: 95 | Plant response rating, Foxtail, Giant [1, 14]: 95 | Plant response rating, Cocklebur [2, 12]: 90 | Cocklebur plant response rating (0 to 100 scale) [2, 13]: 90 | Plant response rating, Cocklebur [2, 15]: 95 | Plant response rating, Cocklebur [2, 14]: 95 | Plant response rating, Ryegrass, Italian [3, 12]: 5 | Ryegrass, Italian plant response rating (0 to 100 scale) [3, 13]: 5 | Plant response rating, Ryegrass, Italian [3, 14]: 80 | Plant response rating, Bromegrass, Downy [4, 12]: 40 | Bromegrass, Downy plant response rating (0 to 100 scale) [4, 13]: 45 | Plant response rating, Bromegrass, Downy [4, 15]: 45 | Plant response rating, Bromegrass, Downy [4, 14]: 60 | Plant response rating, Blackgrass [5, 12]: 0 | Blackgrass plant response rating (0 to 100 scale) [5, 13]: 5 | Plant response rating, Blackgrass [5, 15]: 5 | Plant response rating, Blackgrass [5, 14]: 10 | Plant response rating, Corn (corn (Zea mays); [12]): 15 | Corn plant response rating (0 to 100 scale) (corn (Zea mays); [13]): 65 | Plant response rating, Corn (corn (Zea mays); [15]): 65 | Plant response rating, Corn (corn (Zea mays); [14]): 80 | Plant response rating, Pigweed [6, 12]: 98 | Pigweed plant response rating (0 to 100 scale) [6, 13]: 100 | Plant response rating, Pigweed [6, 14]: 100 | Plant response rating, Morningglory [7, 12]: 90 | Morningglory plant response rating (0 to 100 scale) [7, 13]: 90 | Plant response rating, Morningglory [7, 14]: 95 | Plant response rating, Oat, Wild (wild oat (Avena fatua); [12]): 50 | Oat, Wild plant response rating (0 to 100 scale) (wild oat (Avena fatua); [13]): 55 | Plant response rating, Oat, Wild (wild oat (Avena fatua); [14]): 80 | Plant response rating, Surinam Grass [8, 12]: 95 | Surinam Grass plant response rating (0 to 100 scale) [8, 13]: 95 | Plant response rating, Surinam Grass [8, 14]: 98 | Plant response rating, Windgrass [9, 12]: 40 | Windgrass plant response rating (0 to 100 scale) [9, 13]: 60 | Plant response rating, Windgrass [9, 14]: 70 | Plant response rating, Chickweed [10, 12]: 75 | Chickweed plant response rating (0 to 100 scale) [10, 13]: 85 | Plant response rating, Chickweed [10, 15]: 95 | Plant response rating, Chickweed [10, 14]: 95 | Plant response rating, Canarygrass [11, 12]: 60 | Canarygrass plant response rating (0 to 100 scale) [11, 13]: 70 | Plant response rating, Canarygrass [11, 15]: 80 | Plant response rating, Canarygrass [11, 14]: 90

CCCCn1c(-c2ccccc2)ncc(C(=O)C2=C(O)CCCC2=O)c1=O [Compound 86]
Plant response rating, Foxtail, Giant [1, 12]: 90 | Foxtail, Giant plant response rating (0 to 100 scale) [1, 13]: 95 | Plant response rating, Foxtail, Giant [1, 14]: 98 | Plant response rating, Cocklebur [2, 12]: 85 | Cocklebur plant response rating (0 to 100 scale) [2, 13]: 95 | Plant response rating, Cocklebur [2, 15]: 95 | Plant response rating, Cocklebur [2, 14]: 98 | Plant response rating, Ryegrass, Italian [3, 12]: 25 | Ryegrass, Italian plant response rating (0 to 100 scale) [3, 13]: 30 | Plant response rating, Ryegrass, Italian [3, 14]: 60 | Plant response rating, Bromegrass, Downy [4, 12]: 10 | Bromegrass, Downy plant response rating (0 to 100 scale) [4, 13]: 10 | Plant response rating, Bromegrass, Downy [4, 15]: 35 | Plant response rating, Bromegrass, Downy [4, 14]: 50 | Plant response rating, Blackgrass [5, 12]: 15 | Blackgrass plant response rating (0 to 100 scale) [5, 13]: 30 | Plant response rating, Blackgrass [5, 15]: 45 | Plant response rating, Blackgrass [5, 14]: 55 | Plant response rating, Corn (corn (Zea mays); [12]): 10 | Corn plant response rating (0 to 100 scale) (corn (Zea mays); [13]): 60 | Plant response rating, Corn (corn (Zea mays); [15]): 80 | Plant response rating, Corn (corn (Zea mays); [14]): 85 | Plant response rating, Pigweed [6, 12]: 98 | Pigweed plant response rating (0 to 100 scale) [6, 13]: 100 | Plant response rating, Pigweed [6, 14]: 100 | Plant response rating, Morningglory [7, 12]: 70 | Morningglory plant response rating (0 to 100 scale) [7, 13]: 80 | Plant response rating, Morningglory [7, 14]: 100 | Plant response rating, Oat, Wild (wild oat (Avena fatua); [12]): 20 | Oat, Wild plant response rating (0 to 100 scale) (wild oat (Avena fatua); [13]): 50 | Plant response rating, Oat, Wild (wild oat (Avena fatua); [14]): 80 | Plant response rating, Surinam Grass [8, 12]: 80 | Surinam Grass plant response rating (0 to 100 scale) [8, 13]: 95 | Plant response rating, Surinam Grass [8, 14]: 100 | Plant response rating, Windgrass [9, 12]: 30 | Windgrass plant response rating (0 to 100 scale) [9, 13]: 60 | Plant response rating, Windgrass [9, 14]: 95 | Plant response rating, Chickweed [10, 12]: 80 | Chickweed plant response rating (0 to 100 scale) [10, 13]: 95 | Plant response rating, Chickweed [10, 15]: 95 | Plant response rating, Chickweed [10, 14]: 98 | Plant response rating, Canarygrass [11, 12]: 20 | Canarygrass plant response rating (0 to 100 scale) [11, 13]: 20 | Plant response rating, Canarygrass [11, 15]: 80 | Plant response rating, Canarygrass [11, 14]: 85
